Laboratory results from ChEMBL document CHEMBL4837205, “Design, synthesis and biological evaluations of a series of Pyrido[1,2-a]pyrimidinone derivatives as novel selective FGFR inhibitors” (Eur J Med Chem, 2021).
Converted amounts (≈) assume the structure as drawn.

Experiment: physchem
Settings: buffer, pH 7.4

SMILES | solubility [µg/mL]
COc1cc(OC)cc(N(CCNC(C)C)c2ccc3ncc(-c4cnn(CCN(C)C)c4)c(=O)n3c2)c1 | < 10
COc1cc(OC)cc(N(CCNC(C)C)c2ccc3ncc(-c4cnn(C5CN(C(C)=O)C5)c4)c(=O)n3c2)c1 | 59.1 (≈ 108 µM)
